Read-outs that look alike come from different tables or passages of the source.
Assays:
UGT1A9 = biological target: T1, UGT1A9 (Homo sapiens, UniProt O60656); experiment: HLM UGT substrate cocktail, LC-MS/MS; type: biochemical; settings: mycophenolic acid 0.2 µM; UDPGA 5 mM; alamethicin; 0.25 mg/mL HLM; 37 °C; read-out: Trans-Resveratrol
T1 construct: native enzyme in pooled human liver microsomes (alamethicin-treated), read by mycophenolic acid glucuronidation
T1 sequence (O60656 26-530): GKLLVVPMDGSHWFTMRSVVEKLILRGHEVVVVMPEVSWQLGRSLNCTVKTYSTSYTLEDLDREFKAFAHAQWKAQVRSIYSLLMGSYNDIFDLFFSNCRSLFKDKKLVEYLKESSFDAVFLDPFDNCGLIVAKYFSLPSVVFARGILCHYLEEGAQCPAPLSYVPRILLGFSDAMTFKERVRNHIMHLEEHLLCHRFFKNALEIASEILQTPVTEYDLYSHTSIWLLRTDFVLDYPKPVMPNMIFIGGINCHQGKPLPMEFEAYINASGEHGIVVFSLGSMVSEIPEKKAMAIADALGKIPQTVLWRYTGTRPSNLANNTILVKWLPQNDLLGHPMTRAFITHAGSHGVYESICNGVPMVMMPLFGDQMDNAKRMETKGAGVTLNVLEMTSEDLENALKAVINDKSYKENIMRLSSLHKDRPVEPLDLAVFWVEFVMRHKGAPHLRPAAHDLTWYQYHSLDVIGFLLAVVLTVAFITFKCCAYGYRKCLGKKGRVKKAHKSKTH
Text: HLM UGT substrate cocktail, LC-MS/MS on UGT1A9

UGT1A6 = biological target: T2, UGT1A6 (Homo sapiens, UniProt P19224); experiment: HLM UGT substrate cocktail, LC-MS/MS; type: biochemical; settings: N-acetylserotonin 1 µM; UDPGA 5 mM; alamethicin; 0.25 mg/mL HLM; 37 °C; read-out: Trans-Resveratrol
T2 construct: native enzyme in pooled human liver microsomes (alamethicin-treated), read by N-acetylserotonin glucuronidation
T2 sequence (P19224 27-532): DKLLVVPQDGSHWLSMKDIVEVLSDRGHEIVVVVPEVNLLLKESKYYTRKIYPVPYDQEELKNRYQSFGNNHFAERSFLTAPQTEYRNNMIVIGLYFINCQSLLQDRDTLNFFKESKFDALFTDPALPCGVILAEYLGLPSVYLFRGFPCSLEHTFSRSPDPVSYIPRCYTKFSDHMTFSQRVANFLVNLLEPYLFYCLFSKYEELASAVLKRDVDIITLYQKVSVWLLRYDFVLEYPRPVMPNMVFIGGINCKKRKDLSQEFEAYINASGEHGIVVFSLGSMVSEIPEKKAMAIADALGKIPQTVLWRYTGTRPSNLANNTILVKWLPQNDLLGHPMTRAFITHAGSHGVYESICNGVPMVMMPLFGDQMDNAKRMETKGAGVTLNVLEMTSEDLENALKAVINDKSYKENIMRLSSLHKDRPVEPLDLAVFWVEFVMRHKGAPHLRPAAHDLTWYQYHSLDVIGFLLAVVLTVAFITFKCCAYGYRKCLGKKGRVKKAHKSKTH
Text: HLM UGT substrate cocktail, LC-MS/MS on UGT1A6

CYP3A [1] = biological target: T3, CYP3A; experiment: HLM inhibition kinetics, Dixon / Lineweaver-Burk, LC-MS/MS; type: biochemical, Homo sapiens; settings: midazolam 0.1-2 µM; NADPH-generating system; without preincubation; noncompetitive; read-out: trans-Resveratrol / Without Preincubation / Ki
T3 construct: gene CYP3A4; native CYP3A in pooled human liver microsomes, read by midazolam 1'-hydroxylation (nifedipine as second probe)

UGT1A4 = biological target: T4, UGT1A4 (Homo sapiens, UniProt P22310); experiment: HLM UGT substrate cocktail, LC-MS/MS; type: biochemical; settings: trifluoperazine 0.5 µM; UDPGA 5 mM; alamethicin; 0.25 mg/mL HLM; 37 °C; read-out: Trans-Resveratrol
T4 construct: native enzyme in pooled human liver microsomes (alamethicin-treated), read by trifluoperazine glucuronidation
T4 sequence (P22310 29-534): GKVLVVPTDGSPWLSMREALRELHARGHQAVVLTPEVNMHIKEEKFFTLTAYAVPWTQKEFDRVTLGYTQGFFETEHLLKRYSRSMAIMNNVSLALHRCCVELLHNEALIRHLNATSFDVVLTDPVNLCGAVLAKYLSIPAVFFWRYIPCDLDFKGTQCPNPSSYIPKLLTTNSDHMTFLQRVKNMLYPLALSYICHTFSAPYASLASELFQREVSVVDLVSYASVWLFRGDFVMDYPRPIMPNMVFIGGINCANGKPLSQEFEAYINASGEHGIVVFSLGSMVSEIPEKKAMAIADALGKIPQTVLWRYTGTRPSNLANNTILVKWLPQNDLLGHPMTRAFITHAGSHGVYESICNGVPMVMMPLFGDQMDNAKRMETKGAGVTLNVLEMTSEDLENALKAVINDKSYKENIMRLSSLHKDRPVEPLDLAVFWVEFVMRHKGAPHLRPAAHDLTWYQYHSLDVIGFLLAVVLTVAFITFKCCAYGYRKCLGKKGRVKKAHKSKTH
Text: HLM UGT substrate cocktail, LC-MS/MS on UGT1A4

UGT1A3 = biological target: T5, UGT1A3 (Homo sapiens, UniProt P35503); experiment: HLM UGT substrate cocktail, LC-MS/MS; type: biochemical; settings: chenodeoxycholic acid 2 µM; UDPGA 5 mM; alamethicin; 0.25 mg/mL HLM; 37 °C; read-out: Trans-Resveratrol
T5 construct: native enzyme in pooled human liver microsomes (alamethicin-treated), read by chenodeoxycholic acid 24-glucuronidation
T5 sequence (P35503 29-534): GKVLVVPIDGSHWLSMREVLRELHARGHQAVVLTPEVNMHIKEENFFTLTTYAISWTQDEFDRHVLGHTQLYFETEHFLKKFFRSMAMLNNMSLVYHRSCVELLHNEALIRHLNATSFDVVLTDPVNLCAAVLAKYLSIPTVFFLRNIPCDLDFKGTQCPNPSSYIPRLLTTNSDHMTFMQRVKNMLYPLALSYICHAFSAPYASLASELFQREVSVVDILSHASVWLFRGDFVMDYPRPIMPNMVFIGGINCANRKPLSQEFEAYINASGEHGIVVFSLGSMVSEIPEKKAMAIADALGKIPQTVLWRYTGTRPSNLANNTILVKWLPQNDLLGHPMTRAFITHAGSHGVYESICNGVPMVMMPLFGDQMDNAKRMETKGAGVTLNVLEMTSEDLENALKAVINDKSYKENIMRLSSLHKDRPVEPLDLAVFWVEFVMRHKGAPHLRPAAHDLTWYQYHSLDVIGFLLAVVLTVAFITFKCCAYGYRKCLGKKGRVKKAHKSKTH
Text: HLM UGT substrate cocktail, LC-MS/MS on UGT1A3

UGT1A1 [2] = biological target: T6, UGT1A1 (Homo sapiens, UniProt P22309); experiment: HLM inhibition kinetics, Dixon / Lineweaver-Burk, LC-MS/MS; type: biochemical; settings: SN-38 0.5-10 µM; UDPGA; noncompetitive; read-out: trans-Resveratrol / Without Preincubation / Ki
T6 construct: native enzyme in pooled human liver microsomes (alamethicin-treated), read by SN-38 glucuronidation
T6 sequence (P22309 26-533): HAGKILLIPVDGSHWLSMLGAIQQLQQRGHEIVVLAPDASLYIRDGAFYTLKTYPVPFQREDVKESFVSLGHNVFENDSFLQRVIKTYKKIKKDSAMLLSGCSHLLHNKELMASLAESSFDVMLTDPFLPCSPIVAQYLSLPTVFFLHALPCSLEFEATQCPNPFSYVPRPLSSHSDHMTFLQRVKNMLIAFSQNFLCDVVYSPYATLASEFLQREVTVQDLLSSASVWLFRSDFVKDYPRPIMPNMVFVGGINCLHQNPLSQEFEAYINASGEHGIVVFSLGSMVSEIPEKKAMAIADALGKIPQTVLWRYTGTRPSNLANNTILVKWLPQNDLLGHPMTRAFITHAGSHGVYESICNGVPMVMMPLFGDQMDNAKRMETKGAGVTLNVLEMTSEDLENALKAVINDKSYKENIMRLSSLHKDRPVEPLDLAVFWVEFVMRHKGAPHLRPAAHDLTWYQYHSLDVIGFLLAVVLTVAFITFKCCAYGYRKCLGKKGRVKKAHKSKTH

CYP2A6 = biological target: T7, CYP2A6 (Homo sapiens, UniProt P11509); experiment: HLM substrate cocktail, LC-MS/MS; type: biochemical; settings: coumarin 1 µM; NADPH-generating system; 0.25 mg/mL HLM; 37 °C; without 30 min preincubation; read-out: Trans-resveratrol (μM) / Without Preincubation
T7 construct: native enzyme in pooled human liver microsomes, read by coumarin 7-hydroxylation
T7 sequence (P11509 1-494): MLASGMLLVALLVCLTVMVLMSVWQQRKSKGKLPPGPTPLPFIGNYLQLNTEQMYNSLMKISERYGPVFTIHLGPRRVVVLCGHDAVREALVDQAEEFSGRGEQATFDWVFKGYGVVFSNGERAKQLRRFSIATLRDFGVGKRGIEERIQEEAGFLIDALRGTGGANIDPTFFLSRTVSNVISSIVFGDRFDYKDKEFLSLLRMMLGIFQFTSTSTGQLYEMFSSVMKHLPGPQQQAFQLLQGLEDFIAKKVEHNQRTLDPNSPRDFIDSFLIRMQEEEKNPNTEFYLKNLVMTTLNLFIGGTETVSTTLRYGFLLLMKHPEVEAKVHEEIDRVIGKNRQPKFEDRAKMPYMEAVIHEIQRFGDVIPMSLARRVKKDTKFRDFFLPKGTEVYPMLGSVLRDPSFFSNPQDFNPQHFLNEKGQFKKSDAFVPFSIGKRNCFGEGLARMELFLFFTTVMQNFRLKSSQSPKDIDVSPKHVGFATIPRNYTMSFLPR
Text: HLM substrate cocktail, LC-MS/MS on CYP2A6

CYP3A [3] = system: T3, CYP3A; experiment: HLM substrate cocktail, LC-MS/MS; type: biochemical, Homo sapiens; settings: midazolam 0.1 µM, NADPH-generating system, 0.25 mg/mL HLM, 37 °C, without 30 min preincubation
Text: HLM substrate cocktail, LC-MS/MS on CYP3A

UGT1A1 [4] = biological target: T6, UGT1A1; experiment: HLM UGT substrate cocktail, LC-MS/MS; type: biochemical; settings: SN-38 0.5 µM, UDPGA 5 mM, alamethicin, 0.25 mg/mL HLM, 37 °C
Text: HLM UGT substrate cocktail, LC-MS/MS on UGT1A1

UGT2B7 = biological target: T8, UGT2B7 (Homo sapiens, UniProt P16662); experiment: HLM UGT substrate cocktail, LC-MS/MS; type: biochemical; settings: naloxone 0.2 µM; UDPGA 5 mM; alamethicin; 0.25 mg/mL HLM; 37 °C; read-out: Trans-Resveratrol
T8 construct: native enzyme in pooled human liver microsomes (alamethicin-treated), read by naloxone glucuronidation
T8 sequence (P16662 24-529): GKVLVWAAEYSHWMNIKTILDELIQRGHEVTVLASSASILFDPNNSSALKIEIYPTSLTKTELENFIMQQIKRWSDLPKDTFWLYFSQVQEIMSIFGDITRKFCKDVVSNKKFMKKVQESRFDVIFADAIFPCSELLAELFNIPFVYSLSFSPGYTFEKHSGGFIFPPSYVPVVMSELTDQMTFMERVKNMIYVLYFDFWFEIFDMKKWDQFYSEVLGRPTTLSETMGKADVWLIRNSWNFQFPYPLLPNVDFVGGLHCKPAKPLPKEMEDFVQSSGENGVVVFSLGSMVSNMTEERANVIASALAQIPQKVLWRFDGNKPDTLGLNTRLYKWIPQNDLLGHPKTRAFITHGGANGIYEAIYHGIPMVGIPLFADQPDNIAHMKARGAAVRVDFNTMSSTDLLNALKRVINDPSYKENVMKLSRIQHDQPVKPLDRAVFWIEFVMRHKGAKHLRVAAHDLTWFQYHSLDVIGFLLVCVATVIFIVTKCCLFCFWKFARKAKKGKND
Text: HLM UGT substrate cocktail, LC-MS/MS on UGT2B7

IC50 (UGT1A9) [µM] | IC50 (UGT1A6) [µM] | Ki (CYP3A [1]) [µM] | IC50 (UGT1A4) [µM] | IC50 (UGT1A3) [µM] | Ki (UGT1A1 [2]) [µM] | IC50 (CYP2A6) [µM] | IC50 (CYP3A [3]; read-out: Trans-resveratrol (μM) / Without Preincubation) [µM] | IC50 (UGT1A1 [4]; read-out: Trans-Resveratrol) [µM] | IC50 (UGT2B7) [µM] | IC50 (CYP3A [3]; read-out: Cis-resveratrol (μM) / Without Preincubation) [µM] | IC50 (UGT1A1 [4]; read-out: Cis-Resveratrol) [µM] | SMILES
> 50 | > 50 | 23.8 ± 2.3 | > 50 | > 50 | 27.4 ± 3.6 | > 50 | 29.2 ± 4.5 | 9.57 ± 1.6 | > 50 | – | – | Oc1ccc(/C=C/c2cc(O)cc(O)c2)cc1 [A, 3,5,4′-Trihydroxystilbene]
> 50 | > 50 | – | > 50 | > 50 | – | > 50 | – | – | > 50 | > 50 | > 50 | Oc1ccc(/C=C\c2cc(O)cc(O)c2)cc1 [B, 3,5,4′-Trihydroxystilbene]

— article PMC8470274, “Comprehensive Investigation of Stereoselective Food Drug Interaction Potential of Resveratrol on Nine P450 and Six UGT Isoforms in Human Liver Microsomes” (Pharmaceutics, 2021)
